Measured values: PubChem BioAssay AID248 (DTP/NCI, 2004)
Values joined by “and” are separate entries in the source; they are usually repeats but may differ in a detail not shown here. Equal entries are not always repeated. Toxic doses and inconclusive results are not listed. No stated cut-off is given here; in the data, active means T/C of 150% or more; inactive means T/C below 125%.

Tested on: L1210 leukemia ip in BDF1 mice, survival T/C
Assay: NCI In Vivo Anticancer Drug Screen. Data for tumor model L1210 Leukemia (intraperitoneal) in B6D2F1 (BDF1) mice
Conditions: endpoint: mean survival time, higher = longer survival
Method in brief: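 Value reflects the ratio of survival in compound-treated mice to survival in vehicle-treated controls, with both groups carrying the same transplanted tumor.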

Measured: T/C

CN(C)c1ccc(Nc2c3ccccc3nc3ccccc23)cc1
inactive: dose: 3.13 mg/kg/injection, schedule: Q03HX040 (ip), vehicle: saline 106 % of control | dose: 3.75 mg/kg/injection, schedule: Q01DX Z (ip), vehicle: saline 107 % of control | dose: 3.75 mg/kg/injection, schedule: Q01DX Z (oral), vehicle: olive oil, sesame oil, peanut oil 116 % of control | dose: 5.0 mg/kg/injection, schedule: Q01DX005 (ip), vehicle: saline 107 % of control | dose: 5.0 mg/kg/injection, schedule: Q01DX009 (ip), vehicle: saline 107 % of control | dose: 5.0 mg/kg/injection, schedule: Q01DX009 (sc), vehicle: saline 101 % of control | dose: 6.12 mg/kg/injection, schedule: Q03HX008 (ip), vehicle: saline 107 % of control | dose: 6.25 mg/kg/injection, schedule: Q03HX008 (ip), vehicle: saline 104 % of control | dose: 6.25 mg/kg/injection, schedule: Q03HX016 (ip), vehicle: saline 103 % of control | dose: 7.0 mg/kg/injection, schedule: Q01DX Z (sc), vehicle: steriod suspending solution 104 % of control | dose: 7.5 mg/kg/injection, schedule: Q01DX Z (ip), vehicle: saline 110 % of control | dose: 10.0 mg/kg/injection, schedule: Q01DX005 (ip), vehicle: saline 108 % of control | dose: 10.0 mg/kg/injection, schedule: Q01DX009 (ip), vehicle: saline 117 % of control | dose: 10.0 mg/kg/injection, schedule: Q01DX009 (oral), vehicle: saline 118 % of control | dose: 10.0 mg/kg/injection, schedule: Q01DX009 (sc), vehicle: saline 102 % of control | dose: 10.0 mg/kg/injection, schedule: Q01DX Z (sc), vehicle: steriod suspending solution 115 % of control | dose: 12.5 mg/kg/injection, schedule: Q01DX Z (im), vehicle: saline 108 % of control | dose: 12.5 mg/kg/injection, schedule: Q04DX003 (ip), vehicle: saline 104 % of control | dose: 12.5 mg/kg/injection, schedule: Q06HX004 (ip), vehicle: saline 115 % of control | dose: 12.5 mg/kg/injection, schedule: Q#A X Z (oral), vehicle: saline 112 % of control | dose: 15.0 mg/kg/injection, schedule: Q01DX Z (oral), vehicle: olive oil, sesame oil, peanut oil 115 % of control | dose: 15.0 mg/kg/injection, schedule: Q01DX Z (sc), vehicle: steriod suspending solution 107 % of control | dose: 16.0 mg/kg/injection, schedule: Q01DX Z (ip), vehicle: carboxymethylcellulose (CMC) 112 % of control | dose: 17.5 mg/kg/injection, schedule: Q#A X Z (ip), vehicle: saline 116 % of control | dose: 19.0 mg/kg/injection, schedule: Q03DX006 (oral), vehicle: saline 112 % of control | dose: 20.0 mg/kg/injection, schedule: Q01DX009 (oral), vehicle: saline 101 % of control | dose: 20.0 mg/kg/injection, schedule: Q01DX009 (sc), vehicle: saline 100 % of control | dose: 22.5 mg/kg/injection, schedule: Q01DX009 (ip), vehicle: saline 120 % of control | dose: 23.0 mg/kg/injection, schedule: Q01DX Z (sc), vehicle: steriod suspending solution 115 % of control and 119 % of control | dose: 24.0 mg/kg/injection, schedule: Q01DX Z (ip), vehicle: carboxymethylcellulose (CMC) 120 % of control | dose: 24.0 mg/kg/injection, schedule: Q01DX Z (ip), vehicle: saline 111 % of control | dose: 25.0 mg/kg/injection, schedule: Q01DX001 (oral), vehicle: saline 96 % of control | dose: 25.0 mg/kg/injection, schedule: Q01DX001 (sc), vehicle: saline 96 % of control | dose: 25.0 mg/kg/injection, schedule: Q01DX005 (ip), vehicle: Klucel (hydroxypropylcellulose) (HPC) 112 % of control | dose: 25.0 mg/kg/injection, schedule: Q01DX005 (ip), vehicle: other 108 % of control and 114 % of control | dose: 25.0 mg/kg/injection, schedule: Q01DX009 (ip), vehicle: saline 116 % of control | dose: 25.0 mg/kg/injection, schedule: Q01DX Z (im), vehicle: saline 108 % of control | dose: 25.0 mg/kg/injection, schedule: Q01DX Z (oral), vehicle: saline 120 % of control | dose: 27.0 mg/kg/injection, schedule: Q01DX Z (oral), vehicle: saline 115 % of control | dose: 30.0 mg/kg/injection, schedule: Q01DX Z (ip), vehicle: olive oil, sesame oil, peanut oil 116 % of control | dose: 30.0 mg/kg/injection, schedule: Q01DX Z (sc), vehicle: olive oil, sesame oil, peanut oil 114 % of control | dose: 30.0 mg/kg/injection, schedule: Q01DX Z (sc), vehicle: saline 114 % of control | dose: 35.0 mg/kg/injection, schedule: Q01DX Z (ip), vehicle: carboxymethylcellulose (CMC) 118 % of control | dose: 35.0 mg/kg/injection, schedule: Q01DX Z (ip), vehicle: saline 101 % of control and 111 % of control | dose: 35.0 mg/kg/injection, schedule: Q01DX Z (sc), vehicle: steriod suspending solution 113 % of control | dose: 37.0 mg/kg/injection, schedule: Q03DX006 (oral), vehicle: saline 118 % of control | dose: 40.0 mg/kg/injection, schedule: Q01DX009 (sc), vehicle: saline 105 % of control | dose: 50.0 mg/kg/injection, schedule: Q01DX001 (oral), vehicle: saline 105 % of control | dose: 50.0 mg/kg/injection, schedule: Q01DX001 (sc), vehicle: saline 97 % of control | dose: 50.0 mg/kg/injection, schedule: Q01DX005 (ip), vehicle: other 112 % of control | dose: 50.0 mg/kg/injection, schedule: Q01DX Z (im), vehicle: saline 116 % of control | dose: 50.0 mg/kg/injection, schedule: Q01DX Z (oral), vehicle: saline 117 % of control | dose: 50.0 mg/kg/injection, schedule: Q04DX003 (ip), vehicle: Klucel (hydroxypropylcellulose) (HPC) 111 % of control | dose: 50.0 mg/kg/injection, schedule: Q04DX003 (ip), vehicle: other 108 % of control and 119 % of control | dose: 50.0 mg/kg/injection, schedule: Q#A X Z (oral), vehicle: saline 118 % of control | dose: 53.0 mg/kg/injection, schedule: Q01DX Z (sc), vehicle: saline 113 % of control | dose: 53.0 mg/kg/injection, schedule: Q01DX Z (sc), vehicle: steriod suspending solution 115 % of control | dose: 53.3 mg/kg/injection, schedule: Q01DX Z (ip), vehicle: carboxymethylcellulose (CMC) 115 % of control | dose: 53.3 mg/kg/injection, schedule: Q01DX Z (ip), vehicle: methylcellulose (MC) 111 % of control | dose: 60.0 mg/kg/injection, schedule: Q01DX Z (oral), vehicle: olive oil, sesame oil, peanut oil 120 % of control | dose: 60.0 mg/kg/injection, schedule: Q01DX Z (sc), vehicle: olive oil, sesame oil, peanut oil 117 % of control | dose: 80.0 mg/kg/injection, schedule: Q01DX Z (ip), vehicle: methylcellulose (MC) 95 % of control | dose: 80.0 mg/kg/injection, schedule: Q01DX Z (sc), vehicle: saline 107 % of control | dose: 90.0 mg/kg/injection, schedule: Q01DX009 (ip), vehicle: saline 119 % of control | dose: 100.0 mg/kg/injection, schedule: Q01DX001 (oral), vehicle: saline 112 % of control | dose: 100.0 mg/kg/injection, schedule: Q01DX001 (sc), vehicle: saline 108 % of control | dose: 100.0 mg/kg/injection, schedule: Q01DX005 (ip), vehicle: other 100 % of control | dose: 100.0 mg/kg/injection, schedule: Q04DX003 (ip), vehicle: other 112 % of control | dose: 105.0 mg/kg/injection, schedule: Q01DX Z (ip), vehicle: saline 114 % of control | dose: 120.0 mg/kg/injection, schedule: Q01DX Z (oral), vehicle: olive oil, sesame oil, peanut oil 111 % of control | dose: 120.0 mg/kg/injection, schedule: Q01DX Z (sc), vehicle: saline 120 % of control | dose: 125.0 mg/kg/injection, schedule: Q01DX001 (ip), vehicle: Klucel (hydroxypropylcellulose) (HPC) 115 % of control | dose: 125.0 mg/kg/injection, schedule: Q01DX001 (ip), vehicle: saline 111 % of control | dose: 135.0 mg/kg/injection, schedule: Q#A X Z (ip), vehicle: saline 97 % of control | dose: 175.0 mg/kg/injection, schedule: Q01DX001 (oral), vehicle: saline 108 % of control and 121 % of control | dose: 175.0 mg/kg/injection, schedule: Q07DX003 (oral), vehicle: saline 117 % of control | dose: 180.0 mg/kg/injection, schedule: Q01DX Z (ip), vehicle: carboxymethylcellulose (CMC) 96 % of control and 108 % of control and 110 % of control | dose: 180.0 mg/kg/injection, schedule: Q01DX Z (sc), vehicle: saline 97 % of control | dose: 200.0 mg/kg/injection, schedule: Q01DX001 (oral), vehicle: saline 107 % of control | dose: 200.0 mg/kg/injection, schedule: Q01DX001 (sc), vehicle: saline 103 % of control | dose: 245.0 mg/kg/injection, schedule: Q01DX Z (ip), vehicle: saline 110 % of control | dose: 400.0 mg/kg/injection, schedule: Q01DX Z (im), vehicle: saline 93 % of control | dose: 405.0 mg/kg/injection, schedule: Q01DX Z (ip), vehicle: saline 100 % of control and 113 % of control | dose: 480.0 mg/kg/injection, schedule: Q01DX Z (sc), vehicle: saline 109 % of control | dose: 540.0 mg/kg/injection, schedule: Q01DX Z (ip), vehicle: saline 119 % of control | dose: 600.0 mg/kg/injection, schedule: Q03DX006 (oral), vehicle: saline 101 % of control | dose: 608.0 mg/kg/injection, schedule: Q01DX Z (ip), vehicle: saline 114 % of control | dose: 700.0 mg/kg/injection, schedule: Q01DX001 (oral), vehicle: saline 115 % of control | dose: 912.0 mg/kg/injection, schedule: Q01DX Z (ip), vehicle: saline 115 % of control | dose: 1000.0 mg/kg/injection, schedule: Q01DX001 (ip), vehicle: Klucel (hydroxypropylcellulose) (HPC) 109 % of control | dose: 1260.0 mg/kg/injection, schedule: Q01DX Z (ip), vehicle: saline 119 % of control | dose: 1400.0 mg/kg/injection, schedule: Q01DX001 (oral), vehicle: saline 109 % of control
